Experimental data published in article PMC2765055 (Bioorganic & medicinal chemistry, 2009).
“Also recorded” adds a separate entry of the source. Like-named read-outs stand apart in the source and are kept apart here. One block for each molecule: values may come before it.

How the values were obtained:
HSV-1 [1] = settings: read-out: EC50 HSV-1/HFF; CPE assay; cited from earlier work
HFF cells [2] = settings: neutral red uptake, cited from earlier work
EBV [3] = settings: read-out: EC50 EBV; Daudi cells, viral capsid antigen (VCA) assay; cited from earlier work
MEF = settings: read-out: CC50 MCMV/MEF; cited from earlier work
VZV [4] = settings: cited from earlier work; for EC50: read-out: EC50 VZV/HFF, CPE assay
HFF cells [5] = settings: read-out: CC50 HCMV/HFF Towne; visual cytotoxicity of HFF; cited from earlier work
KB cells = settings: read-out: CC50 HSV-1/BSC-1; replicating KB cells; cited from earlier work
hepatitis B virus (HBV) [6] = settings: cited from earlier work
HSV-1 [7] = settings: read-out: EC50 HSV-1/BSC-1; plaque reduction in BSC-1 cells; cited from earlier work
HCMV AD169 strain = settings: read-out: EC50 HCMV/HFF AD169, plaque reduction; cited from earlier work
[8] = Cytotoxicity, EBV/Akata column; type: cell-based; settings: human, Akata cells
EBV [9] = assay: EBV DNA hybridization assay in Akata cells; type: cell-based, Epstein-Barr virus
[10] = Cytotoxicity by neutral red uptake; type: cell-based; settings: human, HFF cells
[11] = Visual cytotoxicity of HFF's in cells unaffected by virus; type: cell-based; settings: human, HFF cells (not affected by virus)
[12] = Cytotoxicity, MCMV/MEF column; type: cell-based; settings: mouse, MEF cells
HSV-1 [13] = settings: read-out: EC50 HSV-1/BSC-1; ELISA in BSC-1 cells; cited from earlier work
EBV [14] = settings: read-out: EC50 EBV/Akata; DNA hybridization assay; cited from earlier work
HSV-2 [15] = settings: read-out: EC50 HSV-2/HFF; CPE assay; cited from earlier work
HSV-2 [16] = assay: HSV-2 CPE inhibition assay in HFF; type: cell-based, herpes simplex virus type 2; settings: Human alphaherpesvirus 2, read-out: EC50 HSV-2/HFF
[17] = Cytotoxicity in replicating KB cells; type: cell-based; settings: human
[18] = test system: HCMV, MCMV, HSV-1, HSV-2, VZV, EBV, HBV, HCV; assay: Antiviral panel, all tested viruses; type: cell-based
HFF cells [19] = assay: Cytotoxicity by neutral red uptake; type: cell-based; settings: read-out: CC50 HSV-1/HFF; neutral red uptake, HSV-1/HFF column
VZV [20] = assay: VZV CPE assay in HFF; type: cell-based, varicella zoster virus
HSV-1 [21] = assay: HSV-1 CPE inhibition assay in HFF; type: cell-based, herpes simplex virus type 1; settings: Human alphaherpesvirus 1, read-out: EC50 HSV-1/HFF
[22] = test system: HCMV Towne strains with mutations in UL97; assay: HCMV Towne strains with UL97 mutations; type: cell-based, human cytomegalovirus; settings: strains E8 and 2696r
hepatitis C virus (HCV) = assay: HCV antiviral test; type: cell-based
hepatitis B virus (HBV) [23] = assay: HBV antiviral test; type: cell-based
[24] = read-out: CC50 HCMV/HFF AD169, AD169 column
[25] = read-out: CC50 HSV-1/HFF, HSV-1/HFF column

Compound: Nc1nc(O)c2ncn(/C=C3/CC34COP(=O)(O)OC4)c2n1 (stereo not shown) [Compound 10]
EC50 (HSV-1 [1]): > 301 µM | CC50 (HFF cells [2]; [24]): > 301 µM | CC50 (HFF cells [2]; [25]): > 301 µM | EC50 (EBV [3]): 0.96 µM | CC50 (MEF): > 301 µM | EC50 (VZV [4]): > 301 µM | CC50 (HFF cells [5]): > 100 µM | CC50 (KB cells): > 100 µM | activity against HBV (hepatitis B virus (HBV) [6]): effective | EC50 (HSV-1 [7]): 20 µM | EC50 (HCMV AD169 strain): 6 µM

EC50 (EBV [9]; human gammaherpesvirus 4, Akata, read-out: EC50 EBV/Akata): 8.4 µM
Compound: Nc1nc2c(ncn2COCCO)c(=O)[nH]1 [Acyclovir, acyclovir]
CC50 [8]: > 100 µM

Compound: Nc1nc(O)c2ncn(COC(CO)CO)c2n1 [Ganciclovir, ganciclovir]
CC50 [10]: > 100 µM | CC50 [11]: > 100 µM | CC50 [12]: > 100 µM

Compound: Nc1nc2c(ncn2/C=C2/CC2(CO)CO)c(=O)[nH]1 [Compound 2b, cyclopropavir]
EC50 (HSV-1 [1]): > 380 µM | CC50 (HFF cells [2]; [24]): > 380 µM | CC50 (HFF cells [2]; [25]): > 380 µM | EC50 (HSV-1 [13]): > 100 µM | EC50 (EBV [14]): 0.22 µM | CC50 (MEF): > 380 µM | activity against VZV (VZV [4]; HFF): ineffective | EC50 (VZV [4]): > 380 µM | CC50 (HFF cells [5]): > 100 µM | CC50 (KB cells): > 100 µM | EC50 (HSV-2 [15]): > 380 µM | EC50 (HCMV AD169 strain): 0.49 µM

Compound: Nc1nc2c(ncn2/C=C2\CC23CCP(=O)(O)OC3)c(=O)[nH]1 (stereo not shown) [Compound 15]
EC50 (HSV-2 [16]): > 300 µM | CC50 [17]: > 100 µM | CC50 [8]: > 100 µM | antiviral activity against all tested viruses [18]: devoid of potency; also recorded: devoid of antiviral activity | CC50 [10]: > 300 µM | CC50 (HFF cells [19]): > 300 µM | CC50 [11]: > 100 µM | EC50 (VZV [20]; Human alphaherpesvirus 3, read-out: EC50 VZV/HFF): > 300 µM | EC50 (HSV-1 [21]): > 300 µM

Compound: Nc1nc2c(ncn2/C=C2\CC2(CO)CCP(=O)(O)O)c(=O)[nH]1 (stereo not drawn) [Compound 13, (E)-9-{[2-(Hydroxymethy)l-2-(2-phosphonoethyl)cyclopropylidene]methyl}guanine]
CC50 [17]: > 100 µM | CC50 [8]: > 100 µM | antiviral activity against all tested viruses [18]: devoid of potency; also recorded: devoid of antiviral activity | CC50 [11]: > 100 µM

Compound: Nc1nc2c(ncn2/C=C2/CC23CCP(=O)(O)OC3)c(=O)[nH]1 (stereo not shown) [Compound 14]
activity against UL97 mutant strains compared with wild-type Towne HCMV [22]: as active | activity against HCV (hepatitis C virus (HCV)): inactive | activity against VZV (VZV [20]; HFF): ineffective | activity against EBV (EBV [9]; Akata cells): inactive; also recorded: ineffective | activity against HBV (hepatitis B virus (HBV) [23]): inactive

Compound: Nc1nc2c(ncn2/C=C2/CC2(CO)CCP(=O)(O)O)c(=O)[nH]1 (stereo not drawn) [Compound 12, (Z)-9-{[2-(Hydroxymethy)l-2-(2-phosphonoethyl)cyclopropylidene]methyl}guanine]
activity against UL97 mutant strains compared with wild-type Towne HCMV [22]: as active | CC50 [10]: > 300 µM | CC50 (HFF cells [19]): > 300 µM
